Source: US11851406B2, “Positive allosteric modulators of the muscarinic acetylcholine receptor M1” (Vanderbilt University, priority 2018, dated 2023)

How the values were obtained:
[1] = biological target: T1, human mAChR M1 (Homo sapiens, UniProt P11229); assay: mAChR M1 cell-based functional assay (calcium mobilization), PAM activity: increase in the EC20 acetylcholine response; conditions: CHO-K1 cells expressing hM1; calcium flux (Fluo-4); potentiation of EC20 acetylcholine response
T1 sequence (P11229 1-460): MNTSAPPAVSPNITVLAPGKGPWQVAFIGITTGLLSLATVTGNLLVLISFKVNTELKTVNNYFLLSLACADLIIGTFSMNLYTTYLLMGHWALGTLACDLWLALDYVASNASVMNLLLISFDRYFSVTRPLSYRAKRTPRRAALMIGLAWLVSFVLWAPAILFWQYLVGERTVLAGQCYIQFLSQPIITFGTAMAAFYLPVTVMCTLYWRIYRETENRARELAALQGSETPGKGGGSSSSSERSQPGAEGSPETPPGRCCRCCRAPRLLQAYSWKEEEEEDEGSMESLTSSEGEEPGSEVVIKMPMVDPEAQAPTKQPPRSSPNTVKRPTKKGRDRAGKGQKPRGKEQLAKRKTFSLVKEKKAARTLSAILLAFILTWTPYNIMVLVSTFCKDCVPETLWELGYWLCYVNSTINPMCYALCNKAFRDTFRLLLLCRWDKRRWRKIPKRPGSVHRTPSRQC
How it was run: (§1)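 Calcium mobilization in CHO-K1 cells stably expressing hM1, Fluo-4 loaded; 11-point 1:3 compound series added at 4 s, acetylcholine EC20 at 144 s, kinetic fluorescence ratio at 1 Hz. Agonism: rise on compound alone, Emax relative to acetylcholine maximum; PAM: potentiation of EC20 response; four-parameter logistic fits.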

[2] = biological target: T1, human mAChR M1; assay: mAChR M1 cell-based functional assay (calcium mobilization), agonist activity upon compound addition alone; conditions: CHO-K1 cells expressing hM1; for EC50: calcium mobilization upon compound addition, no acetylcholine; for Emax: compound alone, relative to the maximum for acetylcholine
How it was run: as §1

Row | SMILES | EC50 [1] [nM] | Emax [1] [%] | EC50 [2] [µM] | Emax [2] [%]
1 | Cc1c(Cc2ccc(-n3cccn3)cc2)cc(C(=O)NC2CCOCC2(C)C)nc1-c1ccn(C)n1 (stereo not shown) [Compound 64, 4-(4-(1H-pyrazol-1-yl)benzyl)-N-(3,3-dimethyltetrahydro-2H-pyran-4-yl)-5-methyl-6-(1-methyl-1H-pyrazol-3-yl)picolinamide] | 2890 | 91 | > 10 | < 5
2 | Cn1cc(-c2ccc(Cc3cc(C(=O)NC4CC5(COC5)C4)nc(-n4cccn4)c3)cn2)cn1 [Compound 21, 4-((6-(1-methyl-1H-pyrazol-4-yl)pyridin-3-yl)methyl)-6-(1H-pyrazol-1-yl)-N-(2-oxaspiro[3.3]heptan-6-yl)picolinamide] | – | 40 | > 10 | < 5
3 | Cc1c(Cc2ccc(-n3cccn3)cc2)cc(C(=O)N[C@H]2CCOC[C@@H]2O)nc1-c1ccn(C)n1 [Compound 55, 4-(4-(1H-pyrazol-1-yl)benzyl)-N-((3R,4S)-3-hydroxytetrahydro-2H-pyran-4-yl)-5-methyl-6-(1-methyl-1H-pyrazol-3-yl)picolinamide] | 324 | 77 | 6.7 | 22
4 | Cc1c(Cc2ccc(-c3ccn(C)n3)cc2)cc(C(=O)NC[C@@H]2CCCO2)nc1-c1ccn(C)n1 [Compound 15, (S)-5-methyl-6-(1-methyl-1H-pyrazol-3-yl)-4-(4-(1-methyl-1H-pyrazol-3-yl)benzyl)-N-((tetrahydrofuran-2-yl)methyl)picolinamide] | 4610 | 82 | > 10 | < 5
5 | Cc1c(Cc2ccc(-c3ccn(C)n3)cc2)cc(C(=O)N[C@H]2CCC[C@@H]2O)nc1-c1ccn(C)n1 [Compound 12, N-((1S,2S)-2-hydroxycyclopentyl)-5-methyl-6-(1-methyl-1H-pyrazol-3-yl)-4-(4-(1-methyl-1H-pyrazol-3-yl)benzyl)picolinamide] | 1970 | 86 | > 10 | 6
6 | Cc1c(Cc2ccc(-c3ccn(C)n3)nc2)cc(C(=O)N[C@H]2CCC[C@@H]2O)nc1-n1cccn1 [Compound 52, N-((1S,2S)-2-hydroxycyclopentyl)-5-methyl-4-((6-(1-methyl-1H-pyrazol-3-yl)pyridin-3-yl)methyl)-6-(1H-pyrazol-1-yl)picolinamide] | 5030 | 84 | > 10 | 9
7 | Cc1nc(-c2ccc(Cc3cc(C(=O)NC4CC5(COC5)C4)nc(-n4cccn4)c3)cc2)co1 [Compound 23, 4-(4-(2-methyloxazol-4-yl)benzyl)-6-(1H-pyrazol-1-yl)-N-(2-oxaspiro[3.3]heptan-6-yl)picolinamide] | 6250 | 69 | > 10 | < 5
8 | Cn1ccc(-c2ccc(Cc3cc(C(=O)NC4CCOCC4)nc(-c4ccn(C)n4)c3)cc2)n1 [Compound 35, 6-(1-methyl-1H-pyrazol-3-yl)-4-(4-(1-methyl-1H-pyrazol-3-yl)benzyl)-N-(tetrahydro-2H-pyran-4-yl)picolinamide] | – | 46 | > 10 | < 5
9 | Cn1ccc(-c2ccc(Cc3cc(C(=O)N[C@H]4CCOC[C@@H]4O)nc(-c4ccn(C)n4)c3)cc2)n1 [Compound 37, N-((3R,4S)-3-hydroxytetrahydro-2H-pyran-4-yl)-6-(1-methyl-1H-pyrazol-3-yl)-4-(4-(1-methyl-1H-pyrazol-3-yl)benzyl)picolinamide] | 1560 | 76 | > 10 | < 5
10 | Cc1c(Cc2ccc(-c3ccn(C)n3)cc2)cc(C(=O)NC2CCOCC2)nc1-c1ccn(C)n1 [Compound 1, 5-methyl-6-(1-methyl-1H-pyrazol-3-yl)-4-(4-(1-methyl-1H-pyrazol-3-yl)benzyl)-N-(tetrahydro-2H-pyran-4-yl)picolinamide] | 8720 | 85 | > 10 | < 5
11 | Cc1c(Cc2ccc(-n3cccn3)cc2)cc(C(=O)N[C@H]2CCC[C@@H]2O)nc1-c1ccn(C)n1 [Compound 59, 4-(4-(1H-pyrazol-1-yl)benzyl)-N-((1S,2S)-2-hydroxycyclopentyl)-5-methyl-6-(1-methyl-1H-pyrazol-3-yl)picolinamide] | 1980 | 85 | > 10 | < 5
12 | Cc1c(Cc2ccc(-c3ccn(C)n3)cc2)cc(C(=O)N[C@H]2CC[C@@H]2O)nc1-c1ccn(C)n1 [Compound 13, N-((1S,2S)-2-hydroxycyclobutyl)-5-methyl-6-(1-methyl-1H-pyrazol-3-yl)-4-(4-(1-methyl-1H-pyrazol-3-yl)benzyl)picolinamide] | 7990 | 80 | > 10 | < 5
13 | Cc1c(Cc2ccc(-c3ccn(C)n3)cc2)cc(C(=O)N[C@H]2CCOC[C@@H]2O)nc1-c1ccn(C)n1 [Compound 9, N-((3R,4S)-3-hydroxytetrahydro-2H-pyran-4-yl)-5-methyl-6-(1-methyl-1H-pyrazol-3-yl)-4-(4-(1-methyl-1H-pyrazol-3-yl)benzyl)picolinamide] | 542 | 86 | 9.81 | 18
14 | Cn1cc(-c2ccc(Cc3cc(C(=O)N[C@H]4CCC[C@@H]4O)nc(-c4ccn(C)n4)c3)cn2)cn1 [Compound 6, N-((1S,2S)-2-hydroxycyclopentyl)-6-(1-methyl-1H-pyrazol-3-yl)-4-((6-(1-methyl-1H-pyrazol-4-yl)pyridin-3-yl)methyl)picolinamide] | – | 67 | > 10 | < 5
15 | Cc1c(Cc2ccc(-c3cnn(C)c3)nc2)cc(C(=O)N[C@H]2CCC[C@@H]2O)nc1-n1cccn1 [Compound 53, N-((1S,2S)-2-hydroxycyclopentyl)-5-methyl-4-((6-(1-methyl-1H-pyrazol-4-yl)pyridin-3-yl)methyl)-6-(1H-pyrazol-1-yl)picolinamide] | 3960 | 75 | > 10 | 5
16 | Cn1ccc(-c2ccc(Cc3cc(C(=O)N[C@H]4CCCC[C@@H]4O)nc(-n4cccn4)c3)cc2)n1 [Compound 29, N-((1S,2S)-2-hydroxycyclohexyl)-4-(4-(1-methyl-1H-pyrazol-3-yl)benzyl)-6-(1H-pyrazol-1-yl)picolinamide] | 2100 | 73 | > 10 | < 5
